Assay results as given in patent publication US9643971B2 (GALLEON PHARMACEUTICALS, INC., priority 2013, dated 2017).
“Also recorded” adds a separate entry of the source.

What was measured:
in vitro = settings: male, rat, microsomes
anesthetized rat = test: Anesthetized rat spirometry screening assay; assay type: in vivo; settings: for AUC MV Inc (2 min) (ratio vs. std*): 2 minute AUC of minute volume increase vs. comparator N-[2,6-di-(n-propylamino)-[1,3]pyrimidin-4-yl]-N,O-dimethyl-hydroxylamine
Description: Effect of Compounds of the Invention on Respiratory Rate (RR), Tidal Volume (VT), and the Product Minute Volume Using an Anesthetized Rat Spirometry Screening Assay
Anesthetized rats provide a quick method of screening compounds for respiratory and cardiovascular activity. In contrast to the conscious rat model, this model offers an experimental set up with less variation in the baseline cardiovascular and respiratory measures. Compounds screened in this assay may be examined in a conscious rat model.
Rats were initially anesthetized with 3% isoflurane (inhaled) and femoral artery and vein cannulas were surgically inserted. Once cannulated, the rats were transitioned to urethane anesthesia (1.5 g/kg; i.v.) and a tracheal cut-down was performed. After placing the tracheal cannula, it was connected to a pneumotachometer to record respiratory airflow from which respiratory rate (RR), tidal volume (VT), and their product minute volume were derived. After the surgical preparation was complete, animals were allowed to stabilize for 30 minutes while respiratory rate, tidal volume, minute volume, blood pressure and heart rate were recorded continuously. Arterial blood gases (ABG) were obtained from arterial blood collected from the femoral artery. ABG measurements were taken before and 6 minutes after vehicle and each dose of compound administered. Compounds being screened were administered via bolus injections through the venous cannula followed by a saline flush (total time of administration is approximately 30 seconds), and the animal was monitored for at least 6 minutes for changes in cardiovascular efforts. Compounds were prepared in formulations identified to ensure optimal solubility. As such, vehicle controls were matched for the formulation of each compound tested. Dosing of the compound being screened was 0.1 and 0.3 mg/kg. The next dose was not administered until all cardiovascular and respiratory measures had returned to baseline levels. The positive control compounds used were N-[4,6-di-(n-propylamino)-[1,3,5]triazin-2-yl]-N,O-dimethyl-hydroxylamine or N-[2,6-di-(n-propylamino)-[1,3]pyrimidin-4-yl]-N,O-dimethyl-hydroxylamine (both administered at the end of each screening experiment (0.3 mg/kg dose) to validate the experiment and also to serve as a measure with which the compound being screened could be compared.
Data were analyzed by collecting cardiovascular and respiratory data in 30 second averages (BINs). Data were plotted 2 minutes before challenge and then 6 minutes after challenge.

[1] = In vitro metabolic stability in human liver microsomes (HLM); settings: both, human, liver microsomes
[2] = test system: rats chronically treated with morphine; test: Apnea, ventilation and sleep structure in rats chronically treated with morphine (whole-body plethysmography); assay type: in vivo, Zucker rats; settings: oral gavage; for apnea frequency / number of apneas per hr expressed as a percent change from baseline (pre-drug): versus treatment with a vehicle
Description: The objective of this study was to quantify the effects of selected compounds of this invention on apnea, ventilation and sleep structure in a rat model. The study consisted of two treatment conditions: (1) chronic morphine and test compound administered orally, and (2) chronic morphine and oral vehicle.
Adult male lean Zucker rats were anesthetized for electroencephalogram (EEG) and electromyogram (EMG) telemeter implantation. At least one week was permitted post-surgery before animals were used further. Morphine sulfate was added to the drinking water of singly housed rats beginning with 0.1 mg/ml morphine and increasing the concentration in increments, so that a final concentration of 0.6 mg/ml was achieved within 2 weeks. All respiratory measurements were made while animals were unrestrained in whole-body plethysmography chambers to permit animals to sleep and move freely. To avoid eliciting withdrawal, morphine water was continuously available during each plethysmography experiment. Minute volume and the number of central sleep apneas (CSA) were measured during all treatment conditions. A period of at least 1 to 1.5 h was permitted for animals to acclimate to the chamber before data collection began. The biopotential telemeters and their receivers were placed directly under the plethysmographic chambers and were used to continuously to capture EEG, EMG, and body temperature signals. Only data collected between the hours of 10 am to 4:30 pm were used in the final analysis to control for the effects of circadian rhythm on breathing.
Test compound in vehicle or an equivalent volume of vehicle was administered via an oral gavage tube at 12 pm. Data collected between 10 am and 12 pm represented baseline (pre-drug) conditions. Data collected between […] represented post-drug conditions. Analyses of the EEG and EMG waveforms for the purpose of staging sleep-wake behavior in rats as awake, NREM sleep, and REM sleep were based on previous sleep studies involving rodents. Central apneas were defined as a respiratory cycle period that was more than or equal to twice the average cycle period during baseline recordings. Percent time in each sleep-wake state, minute volume, and central sleep apnea counts were compared between treatment groups using a two-way ANOVA (factors: drug treatment and time). Breathing data during wakefulness was not analyzed because movement prevents measurement of accurate volumes when using whole-body plethysmography. When differences were detected with ANOVA, Student-Neuman-Keuls post hoc tests were run for all main effects and interactions. Differences were considered significant when p<0.05. Values are expressed as means±SE.

Compound: CCCNc1nc(NCCC)c2nc(NCCC)nc(NCCC)c2n1.Cl [Compound 6a, N^2,N^4,N^6,N^8-Tetra-n-propyl-pyrimido[5,4-d]pyrimidine-2,4,6,8-tetraamine hydrochloride]
- half-life at 5 μM (in vitro): 6.93 h
- AUC MV Inc (2 min) (ratio vs. std*) (anesthetized rat): 0.54 ratio vs. std
- half-life at 5 μM [1]: > 8.33 h
- melting point: 208 to 211 °C

Compound: CCCNc1nc(NC)c2nc(NCCC)nc(NC)c2n1.Cl [Compound 27a, N^4,N^8-Dimethyl-N^2,N^6-di-n-propyl-pyrimido[5,4-d]pyrimidine-2,4,6,8-tetraamine hydrochloride]
- half-life at 5 μM (in vitro): 2.27 h
- AUC MV Inc (2 min) (ratio vs. std*) (anesthetized rat): 1.22 ratio vs. std
- duration of increase in minute ventilation (anesthetized rat; anesthetized rat, i.v. bolus): approximately 2 minutes
- effect on blood pressure (anesthetized rat; anesthetized rat, i.v. bolus): minimal effects
- effect on minute ventilation above baseline values (anesthetized rat; anesthetized rat, i.v. bolus): increase
- effect on pulse rate (anesthetized rat; anesthetized rat, i.v. bolus): minimal effects
- effect on respiratory rate (anesthetized rat; anesthetized rat, i.v. bolus): stimulatory effects
- dose dependence of effect on minute volume (anesthetized rat; based on a two-minute average): dose-dependent effect
- effect compared to a reference compound as measured by area-under-curve (anesthetized rat; minute volume, two-minute average): greater effect
- half-life at 5 μM [1]: 2.12 h
- apnea frequency ([2]; hydrochloride): reduced; also recorded: decreased
- number of apneas per hr expressed as a percent change from baseline (pre-drug) ([2]; hydrochloride): reduced; also recorded: decreased
- minute volume compared to a vehicle-treated group ([2]; hydrochloride): did not cause an increase; also recorded: do not cause increases
- number of apneas per hr versus vehicle ([2]; hydrochloride): reduced; also recorded: decreased
- ventilation per unit time compared to vehicle ([2]; hydrochloride): did not cause an increase; also recorded: do not cause an increase

Compound: CNc1nc(NCC2CC2)nc2c(NC)nc(NCC3CC3)nc12 [Compound 84, N^2,N^6-Bis-cyclopropylmethyl-N^4,N^8-dimethyl-pyrimido[5,4-d]pyrimidine-2,4,6,8-tetraamine]
- melting point: 264 to 268 °C

Compound: CNc1nc(N(C)NC)nc2c(NC)nc(N(C)NC)nc12 [Compound 91, 2,6-bis-(N,N′-dimethyl-hydrazino)-N^4,N^8-dimethyl-pyrimido[5,4-d]pyrimidine-4,8-diamine]
- half-life at 5 μM (in vitro): 0.4 h
- AUC MV Inc (2 min) (ratio vs. std*) (anesthetized rat): 0.08 ratio vs. std
- half-life at 5 μM [1]: 1.7 h

Compound: CNc1nc(N(C)NC)nc2c(NC)nc(N(C)C)nc12 [Compound 93a, 6-(N,N′-Dimethyl-hydrazino)-N^2,N^2,N^4,N^8-tetramethyl-pyrimido[5,4-d]pyrimidine-2,4,8-triamine]
- half-life at 5 μM (in vitro): 0.233 h
- AUC MV Inc (2 min) (ratio vs. std*) (anesthetized rat): 0.03 ratio vs. std
- half-life at 5 μM [1]: 1.35 h

Compound: CCCNc1nc(NC)c2nc(C(=O)O)nc(NC)c2n1 [Compound 108, 4,8-Bis-methylamino-6-n-propylamino-pyrimido[5,4-d]pyrimidine-2-carboxylic acid]
- AUC MV Inc (2 min) (ratio vs. std*) (anesthetized rat): 0.05 ratio vs. std
- melting point: 218 to 220 °C

Compound: CCCNc1nc(NC)c2nc(-c3ccc(F)cc3)nc(NC)c2n1 [Compound 112a, N^4,N^8-Dimethyl-N^2-n-Propyl-6-(4-fluorophenyl)-pyrimido[5,4-d]pyrimidine-2,4,8-triamine]
- half-life at 5 μM (in vitro): 1.73 h
- AUC MV Inc (2 min) (ratio vs. std*) (anesthetized rat): 0.14 ratio vs. std
- half-life at 5 μM [1]: 2.02 h

Compound: CCCNc1nc(-c2ccc(F)cc2)nc2c(NCCC)nc(NC)nc12 [Compound 114a, N^2-Methyl-N^4,N^8-di-n-propyl-6-(4-fluoro-phenyl)-pyrimido[5,4-d]pyrimidine-2,4,8-triamine]
- half-life at 5 μM (in vitro): 4.15 h
- AUC MV Inc (2 min) (ratio vs. std*) (anesthetized rat): 0.05 ratio vs. std
- half-life at 5 μM [1]: 5.08 h

Compound: CCCCc1nc(NCCC)c2nc(NC)nc(NCCC)c2n1 [Compound 118a, 6-n-Butyl-N^2-methyl-N^4,N^8-di-n-propyl-pyrimido[5,4-d]pyrimidine-2,4,8-triamine]
- half-life at 5 μM (in vitro): 0.567 h
- AUC MV Inc (2 min) (ratio vs. std*) (anesthetized rat): 0.05 ratio vs. std
- half-life at 5 μM [1]: 1.2 h

Compound: CCCNc1nc(OC)nc2c(NCCC)nc(NC)nc12 [Compound 120a, 6-Methoxy-N^2-methyl-N^4,N^8-di-n-propyl-pyrimido[5,4-d]pyrimidine-2,4,8-triamine]
- half-life at 5 μM (in vitro): 1.37 h
- AUC MV Inc (2 min) (ratio vs. std*) (anesthetized rat): 0.36 ratio vs. std
- half-life at 5 μM [1]: 1.9 h

Compound: CCCNc1nc(NCC)nc2c(NCCC)nc(NCC)nc12 [Compound 137a, N^2,N^6-Diethyl-N^4,N^8-di-n-propyl-pyrimido[5,4-d]pyrimidine-2,4,6,8-tetraamine]
- half-life at 5 μM (in vitro): 1.62 h
- AUC MV Inc (2 min) (ratio vs. std*) (anesthetized rat): 0.88 ratio vs. std
- half-life at 5 μM [1]: 3.78 h
- minute volume compared to a vehicle-treated group [2]: do not cause increases
- number of apneas per hr versus vehicle [2]: reduced; also recorded: decreased
- ventilation per unit time compared to vehicle [2]: did not cause an increase; also recorded: do not cause an increase
- minute volume compared to a vehicle-treated group ([2]; higher dose): caused an increase
- minute volume compared to a vehicle-treated group ([2]; low dose): did not cause an increase
- apnea frequency [2]: reduced; also recorded: decreased
- number of apneas per hr expressed as a percent change from baseline (pre-drug) [2]: reduced; also recorded: decreased

Compound: CCCNc1nc(NC2CC2)nc2c(NCCC)nc(NC3CC3)nc12 [Compound 138, N^2,N^6-Dicyclopropyl-N^4,N^8-di-n-propyl-pyrimido[5,4-d]pyrimidine-2,4,6,8-tetraamine]
- half-life at 5 μM (in vitro): 5.52 h
- AUC MV Inc (2 min) (ratio vs. std*) (anesthetized rat): 0.53 ratio vs. std
- half-life at 5 μM [1]: > 8.33 h
- melting point: 210 to 212 °C

Compound: C=CCNc1nc(NC)nc2c(NCC=C)nc(NC)nc12.Cl [Compound 145a, N^4,N^8-Diallyl-N^2,N^6-dimethyl-pyrimido[5,4-d]pyrimidine-2,4,6,8-tetraamine hydrochloride]
- AUC MV Inc (2 min) (ratio vs. std*) (anesthetized rat): 0.88 ratio vs. std
- apnea frequency ([2]; hydrochloride): reduced; also recorded: decreased
- number of apneas per hr expressed as a percent change from baseline (pre-drug) ([2]; hydrochloride): reduced; also recorded: decreased
- minute volume compared to a vehicle-treated group ([2]; hydrochloride): did not cause an increase; also recorded: do not cause increases
- number of apneas per hr versus vehicle ([2]; hydrochloride): reduced; also recorded: decreased
- ventilation per unit time compared to vehicle ([2]; hydrochloride): did not cause an increase; also recorded: do not cause an increase
